# Assay results reported in the kinase profiling compilation of Christmann-Franck et al. (2016).
# Key:
# Assay in all cases: KINOMEscan competition binding
# Conditions in all cases: compound 2.0 µM
# GSK3A (human) = GSK3A (human) (UniProt P49840)
# MYLK2 (human) = MYLK2 (human) (UniProt Q9H1R3)
# IRAK3 (human) = IRAK3 (human) (UniProt Q9Y616)
# PTK6 (human) = PTK6 (human) (UniProt Q13882)
# PHKG1 (human) = PHKG1 (human) (UniProt Q16816)
# ACVR1B (human) = ACVR1B (human) (UniProt P36896)
# [1] = tested on: EGFR (human), P00533 [G719S]
# EPHA3 (human) = EPHA3 (human) (UniProt P29320)
# PRKD1 (human) = PRKD1 (human) (UniProt Q15139)
# NEK1 (human) = NEK1 (human) (UniProt Q96PY6)
# CDC42BPA (human) = CDC42BPA (human) (UniProt Q5VT25)
# RPS6KA1 KD1 (human) = RPS6KA1 KD1 (human) (UniProt Q15418)
# STK17B (human) = STK17B (human) (UniProt O94768)
# MAP3K15 (human) = MAP3K15 (human) (UniProt Q6ZN16)
# CDK4 CCND1 (human) = CDK4 CCND1 (human) (UniProt P11802+P24385)
# FLT3 (human) = FLT3 (human) (UniProt P36888)
# CSF1R (human) = CSF1R (human) (UniProt P07333)
# MAPKAPK5 (human) = MAPKAPK5 (human) (UniProt Q8IW41)
# EPHB4 (human) = EPHB4 (human) (UniProt P54760)
# [2] = tested on: RET (human), P07949 [V804L]
# MAPK8 (human) = MAPK8 (human) (UniProt P45983)
# EIF2AK1 (human) = EIF2AK1 (human) (UniProt Q9BQI3)
# OXSR1 (human) = OXSR1 (human) (UniProt O95747)
# PRKACB (human) = PRKACB (human) (UniProt P22694)
# RPS6KA5 KD1 (human) = RPS6KA5 KD1 (human) (UniProt O75582)
# TNK2 (human) = TNK2 (human) (UniProt Q07912)
# MAP4K3 (human) = MAP4K3 (human) (UniProt Q8IVH8)
# PI4KB (human) = PI4KB (human) (UniProt Q9UBF8)
# PRKX (human) = PRKX (human) (UniProt P51817)
# PIK3CG (human) = PIK3CG (human) (UniProt P48736)
# TAOK3 (human) = TAOK3 (human) (UniProt Q9H2K8)
# PTK2B (human) = PTK2B (human) (UniProt Q14289)
# MAPK14 (human) = MAPK14 (human) (UniProt Q16539)
# INSRR (human) = INSRR (human) (UniProt P14616)
# ADCK4 (human) = ADCK4 (human) (UniProt Q96D53)
# PIK3C2G (human) = PIK3C2G (human) (UniProt O75747)
# MARK2 (human) = MARK2 (human) (UniProt Q7KZI7)
# WEE1 (human) = WEE1 (human) (UniProt P30291)
# PLK1 (human) = PLK1 (human) (UniProt P53350)
# CDK8 (human) = CDK8 (human) (UniProt P49336)
# TLK2 (human) = TLK2 (human) (UniProt Q86UE8)
# CSNK2A2 (human) = CSNK2A2 (human) (UniProt P19784)
# MAP4K4 (human) = MAP4K4 (human) (UniProt O95819)
# Chain of PIK3C2G (human) (O75747 whole entry, looked up): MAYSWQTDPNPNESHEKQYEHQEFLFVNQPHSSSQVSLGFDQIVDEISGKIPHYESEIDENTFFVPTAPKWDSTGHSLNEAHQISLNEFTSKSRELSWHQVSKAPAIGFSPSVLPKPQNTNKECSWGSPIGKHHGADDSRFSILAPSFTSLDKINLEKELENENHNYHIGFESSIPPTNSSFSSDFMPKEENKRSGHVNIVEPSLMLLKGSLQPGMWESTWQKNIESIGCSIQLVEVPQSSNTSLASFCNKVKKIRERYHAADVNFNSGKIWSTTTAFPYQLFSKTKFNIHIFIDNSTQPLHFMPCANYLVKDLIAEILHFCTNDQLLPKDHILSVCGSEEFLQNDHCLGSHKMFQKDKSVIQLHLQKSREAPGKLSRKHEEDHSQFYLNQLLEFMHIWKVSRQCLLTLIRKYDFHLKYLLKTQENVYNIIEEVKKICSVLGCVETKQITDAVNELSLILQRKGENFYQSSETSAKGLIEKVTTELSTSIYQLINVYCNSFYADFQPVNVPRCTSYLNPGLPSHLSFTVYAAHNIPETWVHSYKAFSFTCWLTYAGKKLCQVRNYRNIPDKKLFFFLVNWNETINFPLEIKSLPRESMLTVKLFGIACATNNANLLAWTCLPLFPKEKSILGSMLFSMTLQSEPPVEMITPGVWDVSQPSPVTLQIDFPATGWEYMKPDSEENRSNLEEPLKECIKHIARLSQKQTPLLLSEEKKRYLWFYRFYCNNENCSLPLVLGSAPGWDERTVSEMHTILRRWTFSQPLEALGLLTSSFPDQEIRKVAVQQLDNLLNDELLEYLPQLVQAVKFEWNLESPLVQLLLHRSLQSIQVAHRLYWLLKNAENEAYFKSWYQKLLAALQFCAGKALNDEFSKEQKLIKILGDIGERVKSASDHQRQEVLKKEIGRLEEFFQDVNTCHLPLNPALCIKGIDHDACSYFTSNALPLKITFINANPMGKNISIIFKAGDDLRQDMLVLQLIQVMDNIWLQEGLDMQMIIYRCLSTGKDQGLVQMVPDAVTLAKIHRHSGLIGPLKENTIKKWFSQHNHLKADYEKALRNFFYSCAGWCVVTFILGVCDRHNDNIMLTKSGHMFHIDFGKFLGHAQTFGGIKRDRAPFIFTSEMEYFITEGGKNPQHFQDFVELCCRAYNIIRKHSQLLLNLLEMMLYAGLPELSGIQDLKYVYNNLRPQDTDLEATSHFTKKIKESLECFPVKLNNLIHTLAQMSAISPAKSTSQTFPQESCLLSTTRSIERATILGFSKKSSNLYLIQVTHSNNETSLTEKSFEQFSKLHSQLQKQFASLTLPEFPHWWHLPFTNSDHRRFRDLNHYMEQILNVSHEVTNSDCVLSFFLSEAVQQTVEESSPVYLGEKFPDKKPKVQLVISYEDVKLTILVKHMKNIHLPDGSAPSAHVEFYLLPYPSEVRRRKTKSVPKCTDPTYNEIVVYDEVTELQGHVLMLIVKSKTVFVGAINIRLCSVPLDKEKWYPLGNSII
# Chain of PHKG1 (human) (Q16816 whole entry, looked up): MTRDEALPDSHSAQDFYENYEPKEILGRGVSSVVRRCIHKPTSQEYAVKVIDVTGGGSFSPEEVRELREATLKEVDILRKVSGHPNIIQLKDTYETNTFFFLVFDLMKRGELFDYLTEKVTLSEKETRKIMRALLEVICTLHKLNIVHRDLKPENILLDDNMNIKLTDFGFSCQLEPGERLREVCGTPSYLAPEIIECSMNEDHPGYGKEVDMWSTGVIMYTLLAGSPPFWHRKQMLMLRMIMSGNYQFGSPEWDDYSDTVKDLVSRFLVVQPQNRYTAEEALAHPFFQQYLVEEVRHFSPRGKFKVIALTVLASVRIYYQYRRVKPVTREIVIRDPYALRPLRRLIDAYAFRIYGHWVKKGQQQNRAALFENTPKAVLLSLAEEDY
# Chain of WEE1 (human) (P30291 whole entry, looked up): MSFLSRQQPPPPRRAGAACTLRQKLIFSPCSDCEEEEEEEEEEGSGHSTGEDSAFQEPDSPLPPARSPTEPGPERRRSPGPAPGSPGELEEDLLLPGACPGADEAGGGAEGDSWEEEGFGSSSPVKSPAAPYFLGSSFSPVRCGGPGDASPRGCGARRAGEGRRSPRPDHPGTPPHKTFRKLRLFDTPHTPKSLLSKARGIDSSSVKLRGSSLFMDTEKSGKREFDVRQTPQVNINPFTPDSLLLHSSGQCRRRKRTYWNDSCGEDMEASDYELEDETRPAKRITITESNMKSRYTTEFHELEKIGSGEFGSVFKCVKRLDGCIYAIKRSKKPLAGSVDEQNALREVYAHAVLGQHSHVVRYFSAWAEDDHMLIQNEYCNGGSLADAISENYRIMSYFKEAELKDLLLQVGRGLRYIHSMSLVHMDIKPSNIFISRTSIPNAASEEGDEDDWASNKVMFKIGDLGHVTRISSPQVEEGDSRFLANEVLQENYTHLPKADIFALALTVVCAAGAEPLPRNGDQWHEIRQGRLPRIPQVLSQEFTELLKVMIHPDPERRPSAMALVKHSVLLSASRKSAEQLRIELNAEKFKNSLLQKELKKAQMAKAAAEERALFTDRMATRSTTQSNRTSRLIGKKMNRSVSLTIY
# Chain of TAOK3 (human) (Q9H2K8 whole entry, looked up): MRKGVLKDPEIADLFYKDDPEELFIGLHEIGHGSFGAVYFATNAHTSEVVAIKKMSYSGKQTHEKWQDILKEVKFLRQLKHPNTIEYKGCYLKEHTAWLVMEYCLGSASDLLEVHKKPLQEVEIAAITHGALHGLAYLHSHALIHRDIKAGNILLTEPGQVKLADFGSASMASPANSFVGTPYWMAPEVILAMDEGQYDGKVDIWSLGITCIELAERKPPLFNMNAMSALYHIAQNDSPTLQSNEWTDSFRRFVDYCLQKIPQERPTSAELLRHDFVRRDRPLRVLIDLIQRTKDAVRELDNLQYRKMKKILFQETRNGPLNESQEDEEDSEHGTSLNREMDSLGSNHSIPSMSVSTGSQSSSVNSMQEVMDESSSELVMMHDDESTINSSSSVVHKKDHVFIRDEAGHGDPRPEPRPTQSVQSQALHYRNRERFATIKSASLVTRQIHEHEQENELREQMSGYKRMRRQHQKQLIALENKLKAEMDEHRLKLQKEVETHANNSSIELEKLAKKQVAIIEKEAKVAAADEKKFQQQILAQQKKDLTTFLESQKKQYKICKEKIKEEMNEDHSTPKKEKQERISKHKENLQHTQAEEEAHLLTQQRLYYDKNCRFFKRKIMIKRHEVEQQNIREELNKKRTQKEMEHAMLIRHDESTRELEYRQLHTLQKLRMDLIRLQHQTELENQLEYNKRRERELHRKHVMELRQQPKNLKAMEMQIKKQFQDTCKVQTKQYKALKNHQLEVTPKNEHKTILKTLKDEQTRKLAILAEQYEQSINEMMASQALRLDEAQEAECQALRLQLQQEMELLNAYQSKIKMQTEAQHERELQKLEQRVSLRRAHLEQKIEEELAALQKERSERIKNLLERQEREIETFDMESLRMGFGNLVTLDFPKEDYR
# Chain of TLK2 (human) (Q86UE8 whole entry, looked up): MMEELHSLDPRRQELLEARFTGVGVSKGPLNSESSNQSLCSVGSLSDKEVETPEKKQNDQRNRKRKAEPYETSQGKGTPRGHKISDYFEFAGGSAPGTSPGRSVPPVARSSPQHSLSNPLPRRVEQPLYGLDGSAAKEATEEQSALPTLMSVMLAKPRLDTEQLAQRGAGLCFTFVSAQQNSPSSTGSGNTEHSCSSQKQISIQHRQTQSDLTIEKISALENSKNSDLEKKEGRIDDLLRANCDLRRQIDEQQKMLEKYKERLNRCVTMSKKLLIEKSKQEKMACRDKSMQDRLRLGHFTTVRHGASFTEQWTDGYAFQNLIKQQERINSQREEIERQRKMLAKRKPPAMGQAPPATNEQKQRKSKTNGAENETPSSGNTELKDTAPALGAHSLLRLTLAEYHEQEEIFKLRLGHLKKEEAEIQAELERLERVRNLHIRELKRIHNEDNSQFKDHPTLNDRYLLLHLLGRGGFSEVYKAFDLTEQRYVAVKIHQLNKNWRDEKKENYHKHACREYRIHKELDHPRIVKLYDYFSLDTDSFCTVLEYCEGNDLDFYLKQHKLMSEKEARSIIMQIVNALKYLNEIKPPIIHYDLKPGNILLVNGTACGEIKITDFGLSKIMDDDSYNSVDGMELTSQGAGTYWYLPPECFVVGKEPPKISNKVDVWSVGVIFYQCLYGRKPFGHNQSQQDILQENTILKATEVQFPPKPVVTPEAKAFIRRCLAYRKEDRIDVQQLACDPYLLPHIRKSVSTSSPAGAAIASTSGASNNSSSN
# Chain of EIF2AK1 (human) (Q9BQI3 whole entry, looked up): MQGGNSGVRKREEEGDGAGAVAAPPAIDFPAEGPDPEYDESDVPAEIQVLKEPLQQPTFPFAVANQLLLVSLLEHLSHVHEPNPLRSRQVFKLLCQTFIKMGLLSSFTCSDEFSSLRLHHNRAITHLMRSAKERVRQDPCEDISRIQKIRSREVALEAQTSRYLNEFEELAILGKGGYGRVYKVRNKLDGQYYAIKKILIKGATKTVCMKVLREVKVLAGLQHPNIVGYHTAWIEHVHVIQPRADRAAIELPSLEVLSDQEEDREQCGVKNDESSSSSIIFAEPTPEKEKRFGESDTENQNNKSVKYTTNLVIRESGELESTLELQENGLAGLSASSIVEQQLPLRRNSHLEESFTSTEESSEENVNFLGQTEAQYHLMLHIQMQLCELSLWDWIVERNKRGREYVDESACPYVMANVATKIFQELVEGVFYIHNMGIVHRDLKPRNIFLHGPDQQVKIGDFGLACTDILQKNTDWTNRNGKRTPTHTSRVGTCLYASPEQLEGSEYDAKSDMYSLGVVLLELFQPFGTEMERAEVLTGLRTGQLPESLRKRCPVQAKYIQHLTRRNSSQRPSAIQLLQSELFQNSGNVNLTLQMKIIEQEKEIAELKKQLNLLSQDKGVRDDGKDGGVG
smiles,measurement,setting,value
N#Cc1ccc2ncnc(NCCc3ccc4ccccc4c3)c2c1,"kinase still bound, per cent of control",GSK3A (human),100%
same,"kinase still bound, per cent of control",MYLK2 (human),99%
same,"kinase still bound, per cent of control",IRAK3 (human),82%
same,"kinase still bound, per cent of control",PTK6 (human),96%
same,"kinase still bound, per cent of control",PHKG1 (human),100%
same,"kinase still bound, per cent of control",ACVR1B (human),100%
same,"kinase still bound, per cent of control",[1],86%
same,"kinase still bound, per cent of control",EPHA3 (human),91%
same,"kinase still bound, per cent of control",PRKD1 (human),100%
same,"kinase still bound, per cent of control",NEK1 (human),100%
same,"kinase still bound, per cent of control",CDC42BPA (human),100%
same,"kinase still bound, per cent of control",RPS6KA1 KD1 (human),81%
same,"kinase still bound, per cent of control",STK17B (human),100%
same,"kinase still bound, per cent of control",MAP3K15 (human),91%
same,"kinase still bound, per cent of control",CDK4 CCND1 (human),100%
same,"kinase still bound, per cent of control",FLT3 (human),79%
same,"kinase still bound, per cent of control",CSF1R (human),77%
same,"kinase still bound, per cent of control",MAPKAPK5 (human),79%
same,"kinase still bound, per cent of control",EPHB4 (human),100%
same,"kinase still bound, per cent of control",[2],92%
same,"kinase still bound, per cent of control",MAPK8 (human),100%
same,"kinase still bound, per cent of control",EIF2AK1 (human),100%
same,"kinase still bound, per cent of control",OXSR1 (human),100%
same,"kinase still bound, per cent of control",PRKACB (human),100%
same,"kinase still bound, per cent of control",RPS6KA5 KD1 (human),100%
same,"kinase still bound, per cent of control",TNK2 (human),97%
same,"kinase still bound, per cent of control",MAP4K3 (human),100%
same,"kinase still bound, per cent of control",PI4KB (human),95%
same,"kinase still bound, per cent of control",PRKX (human),93%
same,"kinase still bound, per cent of control",PIK3CG (human),68%
same,"kinase still bound, per cent of control",TAOK3 (human),79%
same,"kinase still bound, per cent of control",PTK2B (human),85%
same,"kinase still bound, per cent of control",MAPK14 (human),100%
same,"kinase still bound, per cent of control",INSRR (human),97%
same,"kinase still bound, per cent of control",ADCK4 (human),100%
same,"kinase still bound, per cent of control",PIK3C2G (human),100%
same,"kinase still bound, per cent of control",MARK2 (human),94%
same,"kinase still bound, per cent of control",WEE1 (human),88%
same,"kinase still bound, per cent of control",PLK1 (human),88%
same,"kinase still bound, per cent of control",CDK8 (human),8.7%
same,"kinase still bound, per cent of control",TLK2 (human),94%
same,"kinase still bound, per cent of control",CSNK2A2 (human),74%
same,"kinase still bound, per cent of control",MAP4K4 (human),97%
